Patent US20260166159A1, “KRAS G12D DEGRADATION AGENT, AND PREPARATION METHOD AND USE THEREFOR” (LEADINGTAC PHARMACEUTICAL (SHAOXING) CO., LTD., priority 2022, published 2026)

Legend:
KRAS-G12D mutant cells = KRAS-G12D mutant cells versus wild-type tumor cells; cited from earlier work
[1] = system: xenograft tumor models of both pancreatic cancer and colorectal cancer; conditions: cited from earlier work
KRAS-G12D [2] = target: T1, KRAS-G12D (Homo sapiens, UniProt P01116, G12D); assay: KRAS-G12D degradation assay (Western Blot), AGS cells; assay type: cell-based; conditions: 24 h
T1 construct: endogenous in cells; host or cells: A-427 (ATCC), AGS, AsPc-1, Panc 04.03
Experimental: (§1) The degradation effects of the compounds on KRAS-G12D were investigated on KRAS G12D mutant human lung cancer cell A-427 (ATCC), KRAS G12D mutant human gastric cancer cell AGS, KRAS G12D mutant human metastatic pancreatic cancer cell AsPc-1, and KRAS G12D mutant human pancreatic adenocarcinoma cell Panc 04.03. The specific procedures were as follows: 0.95 mL of cells were seeded into each well of a 24-well cell culture plate to achieve a cell density of 5×10^5 cells/well; and the cell plate was incubated in an incubator at 37° C. with 5% CO2 overnight. Then 50 μL of the compound solution after dilution was added to each of the wells with the corresponding cells, so that the final concentration of the compound was in a range of 0.03-3000 nM. The final concentration of DMSO was 0.25%. After the compounds were added, the cell plate was incubated in the incubator at 37° C. with 5% CO2 for 24 h. The culture medium in the 24-well cell culture plate was removed, and the plate was washed twice with 1×PBS (KeyGEN). 120 μL of RIPA (strong) lysis buffer (Beyotime) supplemented with 1 mM phenylmethylsulfonyl fluoride, a protease inhibitor mixture (Beyotime), and a protease phosphatase inhibitor mixture (Beyotime) was added to lyse adherent A-427 cells at the bottom of the cell culture plate. After the plate was left to stand on ice for 30 min, the protein lysate in each well was transferred to a 1.5 mL centrifuge tube and centrifuged at 15000 g for 20 min at 4° C. The cell lysate supernatants after centrifugation were cryopreserved in a refrigerator at −80° C. for later use.
(§2) After the samples of the cell lysate supernatants that had been prepared were thawed from the refrigerator at −80° C., the total protein concentrations of the cell lysates were determined using a BCA protein quantification kit (Tiangen). The total protein concentrations of the samples were then adjusted to 0.5 μg/μL with PBS and 5×SDS-PAGE protein loading buffer (Beyotime), and the samples were incubated in a water bath at 100° C. for 15 min. The samples were then incubated in an ice bath for 5 min and centrifuged at 14000 g for 1 min at 4° C., and the supernatants were mixed well as loading samples for the Western Blot assay. The samples were loaded into wells of a 10% precast gel (KeyGEN) with a loading volume of 10 μL (total protein: 5 μg), a sufficient Tris-MOPS-SDS running buffer (Adamas) was added, and then electrophoresis was performed at a constant voltage of 120 V for 55 min. After the electrophoresis, the proteins on the gel were transferred to PVDF membranes at a constant current of 250 mA for 55 min. After the membrane transfer, the PVDF membranes were incubated in 1× Quick Block blocking buffer (Beyotime) at room temperature for 30 min. After the blocking, the PVDF membranes were separately incubated at 4° C. overnight with the KRAS antibody (Abcam) diluted in a ratio of 1:1000 and the […] antibody (Abcam) diluted in a ratio of 1:2000 in 5% BSA as the diluent, and then washed with 1×TBST buffer (2.4 g of Tris, 8.8 g of NaCl, 1.5 mL of Tween 20, with pH adjusted to 7.4, with the volume brought to 1 L) 3 times for 10 min/time. The membranes were incubated with a secondary antibody (Abcam) diluted in 5% BSA at room temperature for 2 h, and then washed with 1×TBST buffer 3 times for 10 min/time. Finally, the membranes were incubated with Clarity Western ECL Substrate (BIO-RAD) for 5 min for luminescence and color development, and a ChemiScope 6200 Touch chemiluminescence imaging system (Clinx) was used for color development and protein mapping. Gray value analysis of the protein maps was performed using the chemiluminescence analysis software (Clinx). The gray correction value for each sample was calculated using the formula: gray correction value=(gray value of target protein/gray value of corresponding internal reference)×10^3. Then degradation rates were calculated by comparison with the gray correction value of the control group. […]

[3] = system: KRAS G12D mutant human gastric cancer cell AGS; assay: 3D cell proliferation inhibition assay, AGS; assay type: cell-based; conditions: 168 h, 7 days, CTG, numeric values
Summary of the method: (§3)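 CellTiter-Glo luminescence, read after 60 min at room temperature, measured growth of 3D cultures (5×10^2 cells/well) exposed for 7 days to compounds at final concentrations of 10000–0.026 nM in 0.2% DMSO. Percent inhibition, scaled between DMSO-treated cells and medium alone, was fitted against log concentration for IC50.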

[4] = system: KRAS G12D mutant human pancreatic cancer cell HPAC; assay: 3D cell proliferation inhibition assay, HPAC; assay type: cell-based; conditions: 168 h, 7 days, CTG
Summary of the method: as §3

[5] = system: KRAS G12D mutant human pancreatic cancer cell Panc 04.03; assay: 3D cell proliferation inhibition assay, Panc 04.03; assay type: cell-based; conditions: 168 h, Panc 04.03, 7 days, CTG, numeric values
Summary of the method: as §3

KRAS-G12D [6] = target: T1, KRAS-G12D; assay: KRAS-G12D degradation assay (Western Blot), AsPc-1 cells; assay type: cell-based
Summary of the method: (§4)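 Each KRAS G12D mutant line (A-427, AGS, AsPc-1, Panc 04.03) was seeded at 5×10^5 cells/well and treated 24 h at 37 °C with 0.03–3000 nM compound (final DMSO 0.25%). KRAS in lysates was measured by Western blot, normalized to β-actin and compared with controls, giving DC50 and Dmax from curve fits.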

KRAS-G12D [7] = target: T1, KRAS-G12D; assay: KRAS-G12D degradation assay (Western Blot), A-427 cells; assay type: cell-based; conditions: A427 cells, 24 h, numeric values
Summary of the method: as §4

[8] = system: KRAS G12D mutant human lung cancer cell A427; assay: 3D cell proliferation inhibition assay, A427; assay type: cell-based; conditions: A-427, 168 h, A427, 7 days, CTG, numeric values
Summary of the method: as §3

KRAS-G12D [9] = target: T1, KRAS-G12D; assay: KRAS-G12D degradation assay (Western Blot), Panc 04.03 cells; assay type: cell-based; conditions: 24 h
Experimental: as §1, §2

[10] = system: KRAS G12D mutant human metastatic pancreatic cancer cell AsPc-1; assay: 3D cell proliferation inhibition assay, AsPc-1; assay type: cell-based; conditions: ASPC1, 168 h, AsPc-1, 7 days, CTG, numeric values
Summary of the method: as §3

T1 sequence (P01116 1-188 isoform P01116-2 G12D): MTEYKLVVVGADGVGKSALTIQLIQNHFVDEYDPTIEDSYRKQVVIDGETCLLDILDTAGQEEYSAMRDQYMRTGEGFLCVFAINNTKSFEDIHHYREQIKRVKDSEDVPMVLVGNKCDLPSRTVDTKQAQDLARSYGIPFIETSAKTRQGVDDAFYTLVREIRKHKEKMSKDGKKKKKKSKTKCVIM

Structure (SMILES) | specificity (KRAS-G12D mutant cells) | inhibition in xenograft tumor models [1] | DC50 (KRAS-G12D [2]) [nM] | Dmax (KRAS-G12D [2]) [%] | IC50 [3] [nM] | IC50 [4] [nM] | IC50 [5] [nM] | DC50 (KRAS-G12D [6]; 24 h) [nM] | Dmax (KRAS-G12D [6]; ASPC1, 24 h) [%] | DC50 (KRAS-G12D [7]) [nM] | Dmax (KRAS-G12D [7]; A-427) [%] | IC50 [8] [nM] | DC50 (KRAS-G12D [9]) [nM] | Dmax (KRAS-G12D [9]) [%] | IC50 [10] [nM]
C#Cc1c(F)ccc2cc(O)cc(-c3ncc4c(N5CC6CCC(C5)N6)nc(OC[C@@]56CCCN5C[C@H](F)C6)nc4c3F)c12 [MRTX1133] | more than 1000 times | Dose-dependent inhibition |  |  |  |  |  |  |  |  |  |  |  |  | 
C#Cc1cccc2cc(O)cc(-c3ccc4c(N5CC6CCC(C5)N6)nc(OCC5(CN6CCN(CC7CCC8(CC7)CCN(C(=O)c7ccc(Cl)c(N9CCC(=O)NC9=O)c7)CC8)CC6)CC5)nc4c3F)c12 [Example 78, 1-(5-(9-((4-((1-(((4-(3,8-diazabicyclo[3.2.1]octan-3-yl)-7-(8-ethynyl-3-hydroxynaphthalen-1-yl)-8-fluoroquinazolin-2-yl)oxy)methyl)cyclopropyl)methyl)piperazin-1-yl)methyl)-3-azaspiro[5.5]undecane-3-carbonyl)-2-chlorophenyl)dihydropyrimidine-2,4(1H,3H)-dione] |  |  | 28.9 | 92.6 | 9.25 | 18.7 | 37.9 | 23.7 | 100 | 10.1 | 70.2 | 16.3 | 16.3 | 100 | 17
